According to patent US20150105252A1, “SUBSTITUTED PYRAZOLES AS HERBICIDES” (E I DU PONT DE NEMOURS AND COMPANY, priority 2013, published 2015):

Assays:
Assay in all cases: Test C postemergence
ryegrass, Italian = assay type: in vivo, Lolium multiflorum
Procedure, shortened: (§1)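 Visual rating, 0–100 scale (0 no effect, 100 complete control), vs untreated controls after 13–15 d greenhouse. Pre: seeds in loam/sand, treated at sowing. Post: plants in peat-based mix, 1- to 4-leaf (2–18 cm). Solvent + surfactant formulation, non-phytotoxic.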

johnsongrass = assay type: in vivo, Sorghum halepense
Procedure, shortened: as §1

blackgrass = assay type: in vivo, Alopecurus myosuroides
Procedure, shortened: as §1

chickweed = assay type: in vivo, Stellaria media
Procedure, shortened: as §1

wheat = assay type: in vivo, Triticum aestivum
Procedure, shortened: as §1

oat, wild = assay type: in vivo, Avena fatua
Procedure, shortened: as §1

kochia = assay type: in vivo, Kochia scoparia
Procedure, shortened: as §1

soybean = assay type: in vivo, Glycine max
Procedure, shortened: as §1

lambsquarters = assay type: in vivo, Chenopodium album
Procedure, shortened: as §1

oilseed rape = assay type: in vivo, Brassica napus
Procedure, shortened: as §1

morningglory = assay type: in vivo, Ipomoea coccinea
Procedure, shortened: as §1

waterhemp = assay type: in vivo, Amaranthus rudis
Procedure, shortened: as §1

pigweed = assay type: in vivo, Amaranthus retroflexus
Procedure, shortened: as §1

nutsedge, yellow = assay type: in vivo, Cyperus esculentus
Procedure, shortened: as §1

ragweed = assay type: in vivo, Ambrosia elation
Procedure, shortened: as §1

foxtail, giant = assay type: in vivo, Setaria faberii
Procedure, shortened: as §1

barnyardgrass = assay type: in vivo, Echinochloa crus-galli
Procedure, shortened: as §1

[1] = Postemergence, 31 g ai/ha, visually evaluated after 13 to 15 days
[2] = postemergence, 62 g ai/ha, scale 0 to 100
[3] = postemergence, 250 g ai/ha, scale 0 to 100 (0 no effect, 100 complete control)
[4] = postemergence, 125 g ai/ha, scale 0 to 100, 0 no effect, 100 complete control

CCCc1cc(C(=O)NCC)nn1Cc1cc(C(F)(F)F)nn1C [Compound 129]
70: Chickweed plant response rating (chickweed; [2]) | Plant response rating, Oilseed Rape (oilseed rape; [3])
0: Plant response rating (scale of 0 to 100 where 0 is no effect and 100 is complete control), Ryegrass, Italian (ryegrass, Italian; [1]) | Plant response rating (scale of 0 to 100 where 0 is no effect and 100 is complete control), Wheat (wheat; [1]) | Plant response rating (scale of 0 to 100 where 0 is no effect and 100 is complete control), Nutsedge, Yellow (nutsedge, yellow; [1]) | Nutsedge, Yellow plant response rating (nutsedge, yellow; [2])
60: Plant response rating (scale of 0 to 100 where 0 is no effect and 100 is complete control), Oilseed Rape (oilseed rape; [1]) | Oilseed Rape plant response rating (oilseed rape; [2])
95: Pigweed plant response rating (pigweed; [2]) | Plant response rating, Pigweed (pigweed; [3])
15: Plant response rating (scale of 0 to 100 where 0 is no effect and 100 is complete control), Foxtail, Giant (foxtail, giant; [1])
90: Plant response rating (scale of 0 to 100 where 0 is no effect and 100 is complete control), Kochia (kochia; [1]) | Kochia plant response rating (kochia; [2]) | Plant response rating, Kochia (kochia; [3]) | Plant response rating, Kochia (kochia; [4]) | Waterhemp plant response rating (waterhemp; [2]) | Plant response rating, Waterhemp (waterhemp; [3]) | Ragweed plant response rating (ragweed; [2])
35: Plant response rating, Blackgrass (blackgrass; [4]) | Plant response rating, Oat, Wild (oat, wild; [3]) | Plant response rating, Oat, Wild (oat, wild; [4]) | Plant response rating, Foxtail, Giant (foxtail, giant; [4])
20: Plant response rating, Blackgrass (blackgrass; [3]) | Foxtail, Giant plant response rating (foxtail, giant; [2])
10: Johnsongrass plant response rating (johnsongrass; [2]) | Plant response rating, Johnsongrass (johnsongrass; [3]) | Plant response rating, Johnsongrass (johnsongrass; [4]) | Plant response rating (scale of 0 to 100 where 0 is no effect and 100 is complete control), Blackgrass (blackgrass; [1]) | Barnyardgrass plant response rating (barnyardgrass; [2]) | Plant response rating, Barnyardgrass (barnyardgrass; [4])
85: Plant response rating (scale of 0 to 100 where 0 is no effect and 100 is complete control), Soybean (soybean; [1]) | Plant response rating (scale of 0 to 100 where 0 is no effect and 100 is complete control), Pigweed (pigweed; [1]) | Plant response rating, Ragweed (ragweed; [3])
80: Plant response rating, Chickweed (chickweed; [4]) | Plant response rating (scale of 0 to 100 where 0 is no effect and 100 is complete control), Morningglory (morningglory; [1]) | Plant response rating, Waterhemp (waterhemp; [4])
98: Soybean plant response rating (soybean; [2]) | Plant response rating, Soybean (soybean; [3]) | Plant response rating, Soybean (soybean; [4]) | Plant response rating, Lambsquarters (lambsquarters; [3]) | Plant response rating, Lambsquarters (lambsquarters; [4])
30: Plant response rating (scale of 0 to 100 where 0 is no effect and 100 is complete control), Oat, Wild (oat, wild; [1]) | Oat, Wild plant response rating (oat, wild; [2])
100: Plant response rating, Chickweed (chickweed; [3]) | Lambsquarters plant response rating (lambsquarters; [2]) | Morningglory plant response rating (morningglory; [2]) | Plant response rating, Morningglory (morningglory; [3]) | Plant response rating, Morningglory (morningglory; [4]) | Plant response rating, Pigweed (pigweed; [4])
50: Plant response rating (scale of 0 to 100 where 0 is no effect and 100 is complete control), Chickweed (chickweed; [1])
75: Plant response rating, Ragweed (ragweed; [4])
5: Ryegrass, Italian plant response rating (ryegrass, Italian; [2]) | Plant response rating, Ryegrass, Italian (ryegrass, Italian; [3]) | Plant response rating, Ryegrass, Italian (ryegrass, Italian; [4]) | Plant response rating (scale of 0 to 100 where 0 is no effect and 100 is complete control), Johnsongrass (johnsongrass; [1]) | Blackgrass plant response rating (blackgrass; [2]) | Wheat plant response rating (wheat; [2]) | Plant response rating, Wheat (wheat; [3]) | Plant response rating, Wheat (wheat; [4]) | Plant response rating, Nutsedge, Yellow (nutsedge, yellow; [3]) | Plant response rating, Nutsedge, Yellow (nutsedge, yellow; [4]) | Plant response rating (scale of 0 to 100 where 0 is no effect and 100 is complete control), Barnyardgrass (barnyardgrass; [1])
65: Plant response rating, Oilseed Rape (oilseed rape; [4]) | Plant response rating (scale of 0 to 100 where 0 is no effect and 100 is complete control), Waterhemp (waterhemp; [1])
45: Plant response rating, Foxtail, Giant (foxtail, giant; [3])
55: Plant response rating (scale of 0 to 100 where 0 is no effect and 100 is complete control), Lambsquarters (lambsquarters; [1]) | Plant response rating (scale of 0 to 100 where 0 is no effect and 100 is complete control), Ragweed (ragweed; [1]) | Plant response rating, Barnyardgrass (barnyardgrass; [3])
